From ChEMBL document CHEMBL4665688, “Discovery of AB680: A Potent and Selective Inhibitor of CD73” (J Med Chem, 2020)

Legend:
[1] = Half life in human at 25 mg, iv administered as single infusion for 30 to 60 mins; format: ADME, organism-based; details: in vivo, time 30-60 min
Cytochrome P450 2B6 = molecular target: T1, Cytochrome P450 2B6 (Homo sapiens, UniProt P20813); experiment: Induction of CYP2B6 (unknown origin) assessed as effect on CYP2B6 mRNA expression; format: ADME
T1 sequence (P20813 whole entry): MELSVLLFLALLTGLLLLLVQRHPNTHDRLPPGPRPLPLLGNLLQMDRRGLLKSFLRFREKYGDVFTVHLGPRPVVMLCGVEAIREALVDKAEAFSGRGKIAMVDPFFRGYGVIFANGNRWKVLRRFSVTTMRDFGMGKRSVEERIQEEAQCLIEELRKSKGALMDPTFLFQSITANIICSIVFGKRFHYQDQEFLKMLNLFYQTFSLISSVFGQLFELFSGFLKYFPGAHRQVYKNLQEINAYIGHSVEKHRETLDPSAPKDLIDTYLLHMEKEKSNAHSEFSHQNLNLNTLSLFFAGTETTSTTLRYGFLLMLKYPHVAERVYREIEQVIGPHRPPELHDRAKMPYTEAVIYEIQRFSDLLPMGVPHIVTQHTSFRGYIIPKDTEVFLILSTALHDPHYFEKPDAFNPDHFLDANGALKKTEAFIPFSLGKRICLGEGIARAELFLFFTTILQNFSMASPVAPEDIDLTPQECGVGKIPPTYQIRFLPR

Cytochrome P450 2C19 [2] = molecular target: T2, Cytochrome P450 2C19 (Homo sapiens, UniProt P33261); experiment: Time dependent inhibition of CYP2C19 in human liver microsomes using s-mephenytoin as substrate in presence of NADPH by LC-MS/MS analysis; format: ADME
Cytochrome P450 2C19 [3] = molecular target: T2, Cytochrome P450 2C19; experiment: Inhibition of CYP2C19 in human liver microsomes using s-mephenytoin as substrate incubated for 5 to 20 mins in presence of NADPH by LC-MS/MS analysis; format: ADME; details: time 5-20 min; read-out: INH
[4] = Cmax in human at 16 mg, iv administered as single infusion for 30 to 60 mins; format: ADME, organism-based; design: route intravenous, dose 16 mg, time 30-60; details: in vivo
Cytochrome P450 2C9 [5] = molecular target: T3, Cytochrome P450 2C9 (Homo sapiens, UniProt P11712); experiment: Time dependent inhibition of CYP2C9 in human liver microsomes using diclofenac as substrate in presence of NADPH by LC-MS/MS analysis; format: ADME
[6] = Volume of distribution at steady state in human at 25 mg, iv administered as single infusion for 30 to 60 mins; format: ADME, organism-based; details: in vivo, time 30-60 min, read-out: Vdss
Cytochrome P450 3A4 [7] = molecular target: T4, Cytochrome P450 3A4 (Homo sapiens, UniProt P08684); experiment: Induction of CYP3A4 (unknown origin) assessed as effect on CYP3A4 mRNA expression; format: ADME
[8] = Half life in human at 16 mg, iv administered as single infusion for 30 to 60 mins; format: ADME, organism-based; details: in vivo, time 30-60 min
[9] = molecular target: Voltage-gated inwardly rectifying potassium channel KCNH2 (Homo sapiens, UniProt Q12809); experiment: Inhibition of human ERG
Cytochrome P450 2C9 [10] = molecular target: T3, Cytochrome P450 2C9; experiment: Inhibition of CYP2C9 in human liver microsomes using diclofenac as substrate incubated for 5 to 20 mins in presence of NADPH by LC-MS/MS analysis; format: ADME; details: time 5-20 min
Cytochrome P450 3A4 [11] = molecular target: T4, Cytochrome P450 3A4; experiment: Time dependent inhibition of CYP3A4 in human liver microsomes using midazolam as substrate in presence of NADPH by LC-MS/MS analysis; format: ADME
[12] = Cmax in human at 25 mg, iv administered as single infusion for 30 to 60 mins; format: ADME, organism-based; design: route intravenous, dose 25 mg, time 30-60; details: in vivo

T4 sequence (P08684 whole entry, the tested form may be a part): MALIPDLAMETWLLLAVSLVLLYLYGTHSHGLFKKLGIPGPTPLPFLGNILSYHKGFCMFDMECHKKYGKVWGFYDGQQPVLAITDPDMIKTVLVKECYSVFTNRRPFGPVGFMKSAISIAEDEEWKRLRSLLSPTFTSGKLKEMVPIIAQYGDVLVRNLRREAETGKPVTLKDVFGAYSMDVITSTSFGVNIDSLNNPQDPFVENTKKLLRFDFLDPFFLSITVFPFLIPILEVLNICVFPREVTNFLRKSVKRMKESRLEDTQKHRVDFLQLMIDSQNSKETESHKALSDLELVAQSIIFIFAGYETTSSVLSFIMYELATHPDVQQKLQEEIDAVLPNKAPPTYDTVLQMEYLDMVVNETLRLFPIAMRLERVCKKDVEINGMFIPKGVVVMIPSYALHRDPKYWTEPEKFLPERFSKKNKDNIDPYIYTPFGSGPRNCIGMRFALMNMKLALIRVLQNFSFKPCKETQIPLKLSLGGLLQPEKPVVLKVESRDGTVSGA
T3 sequence (P11712 whole entry, the tested form may be a part): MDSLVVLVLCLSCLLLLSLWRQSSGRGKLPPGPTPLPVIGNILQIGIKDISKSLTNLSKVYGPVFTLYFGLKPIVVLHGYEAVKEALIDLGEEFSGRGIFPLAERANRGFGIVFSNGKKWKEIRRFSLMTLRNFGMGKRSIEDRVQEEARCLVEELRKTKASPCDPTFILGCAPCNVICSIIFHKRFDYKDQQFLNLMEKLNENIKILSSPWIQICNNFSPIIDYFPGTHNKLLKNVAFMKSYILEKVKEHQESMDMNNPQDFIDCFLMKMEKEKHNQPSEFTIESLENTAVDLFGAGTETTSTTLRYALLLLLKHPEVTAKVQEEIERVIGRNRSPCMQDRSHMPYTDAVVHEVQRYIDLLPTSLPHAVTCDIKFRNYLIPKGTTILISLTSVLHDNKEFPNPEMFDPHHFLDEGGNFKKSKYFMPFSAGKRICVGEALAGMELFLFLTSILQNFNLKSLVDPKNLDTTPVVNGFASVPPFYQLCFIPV
T2 sequence (P33261 whole entry): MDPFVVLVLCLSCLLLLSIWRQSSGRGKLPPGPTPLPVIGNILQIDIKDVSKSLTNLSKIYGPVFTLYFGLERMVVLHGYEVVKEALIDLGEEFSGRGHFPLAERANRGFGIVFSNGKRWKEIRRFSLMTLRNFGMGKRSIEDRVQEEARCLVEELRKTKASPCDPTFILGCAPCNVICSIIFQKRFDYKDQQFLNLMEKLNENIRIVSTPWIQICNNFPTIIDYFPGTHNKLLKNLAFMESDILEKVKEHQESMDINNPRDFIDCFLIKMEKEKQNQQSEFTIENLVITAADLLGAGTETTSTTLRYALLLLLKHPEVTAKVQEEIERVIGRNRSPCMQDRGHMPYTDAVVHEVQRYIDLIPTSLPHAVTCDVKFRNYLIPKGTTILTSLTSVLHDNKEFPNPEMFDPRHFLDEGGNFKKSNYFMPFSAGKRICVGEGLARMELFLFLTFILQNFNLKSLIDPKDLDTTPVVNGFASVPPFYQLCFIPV
Chain of Voltage-gated inwardly rectifying potassium channel KCNH2 (Q12809 whole entry): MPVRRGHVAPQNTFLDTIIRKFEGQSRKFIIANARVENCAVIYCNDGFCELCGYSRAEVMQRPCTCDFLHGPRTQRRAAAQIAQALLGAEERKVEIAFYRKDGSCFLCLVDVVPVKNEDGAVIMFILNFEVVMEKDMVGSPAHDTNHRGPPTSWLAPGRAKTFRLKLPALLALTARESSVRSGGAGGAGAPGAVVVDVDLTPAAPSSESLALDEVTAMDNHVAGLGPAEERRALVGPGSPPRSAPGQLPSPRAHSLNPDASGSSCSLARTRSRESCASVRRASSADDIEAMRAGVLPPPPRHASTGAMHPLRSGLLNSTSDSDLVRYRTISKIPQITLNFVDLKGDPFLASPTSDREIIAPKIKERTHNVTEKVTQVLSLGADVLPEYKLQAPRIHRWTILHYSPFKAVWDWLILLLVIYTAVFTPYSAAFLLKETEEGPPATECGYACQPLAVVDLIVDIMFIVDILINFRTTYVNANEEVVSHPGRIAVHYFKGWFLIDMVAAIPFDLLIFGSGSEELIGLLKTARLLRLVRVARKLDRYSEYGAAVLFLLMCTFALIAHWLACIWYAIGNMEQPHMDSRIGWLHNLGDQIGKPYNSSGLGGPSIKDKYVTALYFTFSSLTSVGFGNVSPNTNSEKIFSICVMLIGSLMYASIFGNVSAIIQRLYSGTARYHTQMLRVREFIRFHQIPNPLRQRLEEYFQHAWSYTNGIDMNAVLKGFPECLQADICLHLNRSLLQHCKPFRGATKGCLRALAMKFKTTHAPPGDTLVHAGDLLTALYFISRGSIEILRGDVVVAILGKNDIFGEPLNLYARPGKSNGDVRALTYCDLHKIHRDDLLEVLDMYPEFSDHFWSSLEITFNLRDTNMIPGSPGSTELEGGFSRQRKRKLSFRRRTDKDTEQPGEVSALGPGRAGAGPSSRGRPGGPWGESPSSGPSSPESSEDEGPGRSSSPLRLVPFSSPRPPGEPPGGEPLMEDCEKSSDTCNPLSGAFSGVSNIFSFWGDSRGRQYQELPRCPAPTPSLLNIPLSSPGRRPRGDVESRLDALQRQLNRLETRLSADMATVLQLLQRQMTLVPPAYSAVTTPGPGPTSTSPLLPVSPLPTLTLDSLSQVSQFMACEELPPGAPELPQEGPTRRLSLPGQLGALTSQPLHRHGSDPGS

## C[C@H](Nc1cc(Cl)nc2c1cnn2[C@@H]1O[C@H](COP(=O)(O)CP(=O)(O)O)[C@@H](O)[C@H]1O)c1ccccc1F
[1]
  half-life: 3.09 days
Cytochrome P450 2B6
  Activity: Not Active
Cytochrome P450 2C19 [2]
  TDI: Not Active
Cytochrome P450 2C19 [3]
  IC50: > 100 µM
[4]
  Cmax: 3910 ng/mL
Cytochrome P450 2C9 [5]
  TDI: Not Active
[6]
  Vd: 6.98 L
Cytochrome P450 3A4 [7]
  Activity: Not Active
[8]
  half-life: 2.77 days
[9]
  IC50: > 10 µM
Cytochrome P450 2C9 [10]
  INH: > 100 µM
Cytochrome P450 3A4 [11]
  TDI: Not Active
[12]
  Cmax: 5170 ng/mL
